According to patent publication US20210318306A1, “Compositions for and Methods of Neutralizing Lipopolysaccharide Toxicity and Methods of Identifying the Same” (priority 2020, published 2021):
Values joined by “and” are separate entries in the source; they are usually repeats but may differ in a detail not shown here. Equal values may be shown once. “Also recorded” adds a separate entry of the source.

What was measured:
Type in all cases: cell-based, human
[1] = system: HEK-TLR4 cells; assay: P. gingivalis LPS-induced cytokine secretion by HEK-TLR4 cells, Luminex 5-plex magnetic bead panel (Example 2)
Experimental: Commercially available HEK-Blue TLR4 cells (Invitrogen) are recombinant HEK 293 cells that have been transformed with DNA that encodes TLR4 that is expressed and present on the cell surface. HEK-Blue TLR4 cells are grown ion culture and used can be used in experimental assays to identify test compositions that modulate inflammation pathways stimulated by TLR4-LPS interaction.
Initial for LPS and zinc-containing starting solutions were made as follows. An LPS starting solution was prepared as follows: a […] solution of LPS was prepared using 2 μl of 1 mg/ml LPS and 10 ml media. Multiple zinc starting solutions were each prepared using media as diluent: a) 20 mM zinc oxide, b) 2 mM zinc oxide, c) 20 mM zinc citrate, d) 2 mM zinc citrate, e) 20 mM of a composition containing a 2:1 mixture of zinc oxide and zinc citrate and f) 2 mM of a composition containing a 2:1 mixture of zinc oxide and zinc citrate. The starting solutions were used to prepare various test samples.
In some embodiments, control assays include “Untreated”, in which eight Zinc test samples without LPS were made: […], 10 mM zinc oxide+zinc citrate, 1 mM zinc oxide+zinc citrate, 10 mM zinc oxide+zinc citrate+arginine and 1 mM zinc oxide+zinc citrate+arginine, The test samples without LPS were prepared by diluting the zinc starting solutions with equal parts media. Eight test samples with LPS were made: […], […], […], […], 10 mM zinc oxide+zinc citrate LPS, 1 mM zinc oxide+zinc citrate LPS, 10 mM zinc oxide+zinc citrate+arginine LPS and 1 mM zinc oxide+zinc citrate+arginine LPS. The test samples with LPS were prepared by diluting the zinc starting solutions with equal parts LPS starting solution.
(§1) Cells were grown to 70-80% confluent in a 96 well plate. 100 uL of a test sample was added to a well. Cells with test sample were incubated overnight. Media was collected from each well and transferred to a corresponding well in a 96-well plate. Assays to measure proinflammatory cytokines including IL-8 secretion were performed for each well.
(§2) Inflammation markers in supernatants collected from HEK-Blue cells co-incubated with Zinc and Zinc+LPS were quantified using Luminex Magpix instrument (MAGPIX-XPON42) and human 5-plex cytokine/chemokine Magnetic bead panel (Millipore HCYTOMAG-60K). The human 5-plex cytokine/chemokine Magnetic bead panel quantifies TNF-α, IL-6, IL-8, IL-1β and GM-CSF.
The Luminex Kit Procedure outlined in the instruction manual for each separate Luminex kit was performed on the supernatants collected from the HEK-Blue cells co-incubated with Zinc test solutions without LPS and Zinc test solutions plus LPS. Quality controls in range for the specified analytes were performed to ensure levels were within the acceptable range.
To run the Luminex Test, all necessary calibration and verification procedures as outlined by the MagPix and xPonent softwares were completed and the appropriate protocol for the assay was selected. The standards were verified to be correct and complete the plate layout of samples was verified. […] The “Avg. Result” was identified in the results generated.
Experiments were conducted to identify compositions that inhibit P. gingivalis LPS-induced IL-8, TNFα, GM-CSF, IL-1β and IL-6 by HEK-TLR4 cells. HEK-TLR4 cells in 96 well plates were contacted with 100 μl samples. IL-8, TNFα, GM-CSF, IL-1β and IL-6 were detected as described above.

[2] = system: HEK-Blue hTLR4 cells; assay: IL-8 dose response in HEK-Blue hTLR4 cells with P.g. LPS 1 μg/ml and 3X-24X dilutions of simple solutions (Example 4)
Experimental: HEK-Blue hTLR4 cells (Invivogen, cat #hkb-htlr4) were cultured in a DMEM culture medium supplemented with 10% FBS and 1% penstrep at 37° C. with 5% CO2. LPS from Porphyromonas gingivalis (P.g. LPS; Invivogen, cat #tlrl-pglps and cat #tlrl-ppglps) activates TLR4 receptor and downstream inflammation in HEK-Blue hTLR4 cells. P.g. LPS is co-incubated with HEK-Blue hTLR4 cells in the absence or presence of the simple solutions. Standard and ultrapure P.g. LPS were both used due to ultrapure being a specific ligand for the TLR4 receptor while standard LPS is a ligand for both TLR2 and TLR4.
The simple solutions a) Zinc Oxide (ZnO), b) Zinc Citrate (ZnCitrate), c) Zinc Oxide+Zinc Citrate (Dual Zinc; DZ), d) Dual Zinc+Arginine (DZA, zinc oxide, zinc citrate and arginine), and e) L-Arginine (Arg) were diluted at different concentrations with culture medium.
2) experiments using 3×, 6×, 12×, and 24× dilution fold of the simple solutions (see Table 6 below).
HEK-Blue hTLR4 cells were plated in 96-well plates and grown until confluent at 37° C. and 5% CO2 in HEK-blue selection media (DMEM with 10% FBS, 1% penicillin-streptomycin, and antibiotics for HEK-blue selection (Invivogen, cat #hb-sel)). Cells were co-incubated overnight with varying concentrations of different zinc actives as well as arginine and stimulated with either 0.1 μg/mL standard P. gingivalis LPS or 1 μg/mL ultrapure P. gingivalis LPS. Cell supernatants were collected for human inflammation cytokine panels using Multiplex and ELISA analysis.
Multiplex analysis was performed using the MILLIPLEX MAP Human Cytokine/Chemokine Magnetic Bead Panel—Immunology Multiplex Assay for IL-1, IL-6, IL-8, TNFα, and GM-CSF (Millipore Sigma, cat #HCYTOMAG-60K).
In order to understand the role of Arginine in the inhibition of LPS induced inflammation, a dose response experiment was performed using ultrapure P.g. LPS, which only specifically targets TLR4 receptor, in order to maximize the activation of NF-kB and expression of IL-8.
The testing samples were prepared as the stock simple solutions. […] The first serial dilution was made 3 times with water, a dilution factor simulating dilution of toothpastes while brushing. Additional serial dilutions were made by 2-fold of the first dilution to study dose response effect.

[3] = system: HEK-Blue hTLR4 cells; assay: E. coli LPS- and P. gingivalis LPS-induced IL-8 by HEK-Blue hTLR4 cells (Example 3)
Experimental: as §1, §2
Experiments were conducted to identify compositions that inhibit E. coli LPS-induced IL-8 and P. gingivalis LPS-induced IL-8 by HEK-Blue hTLR4 cells. HEK-TLR4 cells in 96 well plates were contacted with 100 μl samples. IL-8 was detected as described above.

[4] = P. gingivalis LPS, 300 and 600 ppm
[5] = 3X dilution of stock simple solution (Table 6) with P.g. LPS (1 μg/ml)
[6] = 6X dilution of stock simple solution (Table 6) with P.g. LPS (1 μg/ml)
[7] = 12X dilution of stock simple solution (Table 6) with P.g. LPS (1 μg/ml)
[8] = 24X dilution of stock simple solution (Table 6) with P.g. LPS (1 μg/ml)

SMILES: [O]=[Zn] [ZnO, zinc oxide]
- TNFα (raw data, single replicate) ([1]; 600 ppm with 0.1μ/ml P. gingivalis LPS): 43.99 pg/mL and 24.75 pg/mL and 19.13 pg/mL and 18.02 pg/mL
- GM-CSF (raw data, single replicate) ([1]; 600 ppm, without LPS): 0.8854 pg/ml and 0.2263 pg/ml and 0.001671 pg/ml (2×)
- IL-1β (raw data, single replicate) ([1]; 600 ppm, without LPS): 2.871 pg/mL and 1.039 pg/mL and 0.4329 pg/mL and 0.4044 pg/mL
- IL-6 (raw data, single replicate) ([1]; 600 ppm, without LPS): 1.011 pg/ml and 0.3248 pg/ml and <3.2 pg/ml (2×)
- IL-8 (average result) ([1]; 600 ppm, without LPS): 558.8 pg/mL
- IL-8 (raw data, single replicate) ([1]; 600 ppm, without LPS): 993.3 pg/mL and 512.5 pg/mL and 355.4 pg/mL and 374 pg/mL
- TNF-α (average result) ([1]; 600 ppm, without LPS): 2.405 pg/mL
- TNFα (raw data, single replicate) ([1]; 600 ppm, without LPS): 3.729 pg/mL and 2.195 pg/mL and 1.804 pg/mL and 1.891 pg/mL
- effect on LPS-induced TNFα (in words) [1, 4]: reduced LPS-induced TNFα; also recorded: significantly reduced
- effect on induction of IL-8 by LPS (in words) [1, 4]: significantly reduced; also recorded: comparatively small effect
- IL-8 Concentration, Average [2, 5]: 29.0 pg/mL
- IL-8 Concentration, replicate [2, 5]: 32.6 pg/mL and 25.5 pg/mL
- IL-8 Concentration, Average [2, 6]: 510.0 pg/mL
- IL-8 Concentration, replicate [2, 6]: 646.1 pg/mL and 374.0 pg/mL
- IL-8 Concentration, Average [2, 7]: 2658.0 pg/mL
- IL-8 Concentration, replicate [2, 7]: 2699.5 pg/mL and 2616.4 pg/mL
- IL-8 Concentration, Average [2, 8]: 3015.5 pg/mL
- IL-8 Concentration, replicate [2, 8]: 3010.4 pg/mL and 3020.6 pg/mL
- inhibition of IL-8 (in words) ([2]; when dilution folds increase): lose the inhibition of IL-8 gradually
- IL-8 (average) ([3]; 100 ppm with 1.0 μg/ml E. coli LPS): 317267829 pg/mL
- IL-8 (average) ([3]; 100 ppm with 1.0 μg/ml P. gingivalis LPS): 210374063 pg/mL
- IL-8 (average) ([3]; 100 ppm, without LPS): 610.1 pg/mL
- inhibitory effect on P. gingivalis LPS-induced IL-8 (in words) ([3]; 500 ppm and 100 ppm): inhibitory effect
- IL-8 (average) ([3]; 500 ppm with 1.0 μg/ml E. coli LPS): 564963251 pg/mL
- IL-8 (average) ([3]; 500 ppm with 1.0 μg/ml P. gingivalis LPS): 275576697 pg/mL
- IL-8 (average) ([3]; 500 ppm, without LPS): 448.6 pg/mL
